Patent US20140066365A1, “USE OF CALIXARENES ASSOCIATED WITH AN ANTIBIOTIC IN THE TREATMENT OF BACTERIAL INFECTIONS” (priority 2011, published 2014)
Converted amounts (≈) assume the structure as drawn. Where two headings read alike, the source gives them in different places.

Experiments:
Type in all cases: cell-based
[1] = tested on: SaR1: Meticillin-Resistant Staphylococcus aureus without Associated Resistance; assay: Antibiogram, inhibition diameter (Table D1); conditions: for Results: from diameter, against Dmin Dmax
Protocol: (§1) The bacterial and antibiogramidentification is carried out by the VITEK 2 system (bioMérieux)

[2] = tested on: SaR1: Meticillin-Resistant Staphylococcus aureus without Associated Resistance; assay: Antibiogram, MIC by the VITEK 2 system; conditions: SaR1; for CA-SFM Interpretation: Cc CA-SFM 2011; for Results: from MIC
Protocol: as §1

[3] = tested on: SaR4: Meticillin-Resistant Staphylococcus aureus; assay: Antibiogram, MIC by the VITEK 2 system; conditions: SaR4; for CA-SFM Interpretation: Cc CA-SFM 2011
Protocol: (§2) The bacterial and antibiogramidentification is carried out by the VITEK 2 system (bioMérieux) and by the disk diffusion technique

[4] = tested on: SaR3: Meticillin-Resistant Staphylococcus aureus; assay: Antibiogram by the disk diffusion technique; conditions: for CA-SFM Interpretation: Cd CA-SFM 2011; for Diameter: Table E1; for Results: Table E1, against Dmin Dmax; for diameter in mm: Table E2
Protocol: as §2

[5] = tested on: EcR1: Penicillinase-Producing Escherichia coli without Associated Resistance; assay: Antibiogram, MIC by the VITEK 2 system; conditions: for MIC: Escherichia coli
Protocol: (§3) 5.1 EcR1: Penicillinase-Producing Escherichia coli without Associated Resistance The bacterial and antibiogramidentification is carried out by the VITEK 2 system (bioMérieux) and by the disk diffusion technique.

[6] = tested on: PaR5: Pseudomonas aeruginosa; assay: Antibiogram by the disk diffusion technique
Protocol: as §2

[7] = tested on: ESBL-producing strain of Escherichia coli, having an associated resistance to the aminoglycosides (EcR3); assay: MIC of the compounds used alone, microdilution in a liquid medium (CLSI); conditions: Escherichia coli, antibiotic alone (second value of cell), read-out: Initial MICs
Excerpt: (§4) The MICs of the antibiotics were previously defined for each strain, by the method of microdilution in a liquid medium (CLSI (Clinical and Laboratory Standards Institute), 2003).

[8] = tested on: cephalosporinase-hyperproducing strain of Escherichia coli (EcR2); assay: as above; conditions: Escherichia coli, antibiotic alone (second value of cell), read-out: Initial MICs
Excerpt: as §4

[9] = tested on: penicillinase-producing strain of Escherichia coli without associated resistance (EcR1); assay: as above; conditions: Escherichia coli, antibiotic alone (second value of cell), read-out: Initial MICs
Excerpt: as §4

[10] = tested on: Escherichia coli strain ATCC 25922 (wild type); assay: as above; conditions: Escherichia coli, ATCC25922; antibiotic alone (second value of cell); E. coli ATCC 25922; read-out: Initial MICs
Excerpt: as §4

[11] = tested on: PaR3: Pseudomonas aeruginosa; assay: Antibiogram, MIC by the VITEK 2 system
Protocol: as §1

[12] = tested on: EcR3: ESBL-Producing Escherichia coli; assay: Antibiogram by the disk diffusion technique
Protocol: The bacterial and antibiogramidentification is carried out by the VITEK 2 system (bioMerieux) and by the disk diffusion technique

[13] = tested on: EcR1: Penicillinase-Producing Escherichia coli without Associated Resistance; assay: Antibiogram by the disk diffusion technique; conditions: Table A1
Protocol: as §3

[14] = tested on: PaR2: Pseudomonas aeruginosa
Protocol: as §2

[15] = Staphylococcus aureus, Table D1, read-out: MIC
[16] = Staphylococcus aureus, Table F1, read-out: MIC
[17] = Staphylococcus aureus, Table F2, MIC, read-out: MIC
[18] = EcR1, Table A2, read-out: MIC mg/L (diameter in mm)
[19] = EcR1, VITEK 2, Table A1, read-out: MIC

Compound: Pristinamycin
- Diameter [1]: 25 mm
- Results [1]: Susceptible
- CA-SFM Interpretation [2]: Susceptible
- MIC mg/L ([2]; Table D1): ≦0.5 mg/L
- Results ([2]; Table D1): Susceptible
- MIC mg/L ([2]; Table D2): ≦0.5 mg/L
- MIC mg/L ([3]; Table F1): ≦2 mg/L
- Results ([3]; Table F1, MIC): Susceptible
- MIC ([3]; Table F2, MIC): ≦2 mg/L
- CA-SFM Interpretation ([3]; from MIC): Susceptible
- CA-SFM Interpretation [4]: Susceptible
- Diameter [4]: 23 mm
- Results [4]: Susceptible
- diameter in mm [4]: 23 mm

Compound: CC1COc2c(N3CCN(C)CC3)c(F)cc3c(=O)c(C(=O)O)cn1c23 (stereo not shown) [Ofloxacin]
- Diameter [1]: 24 mm
- MIC ([2]; Table D2): 1 mg/L (≈ 2.77 µM)
- MIC [2, 15]: 1 mg/L (≈ 2.77 µM)
- MIC [3, 16]: ≥ 8 mg/L
- MIC [3, 17]: ≥ 8 mg/L
- MIC [5, 18]: ≤ 0.25 mg/L
- MIC [5, 19]: ≤ 0.25 mg/L
- Diameter ([6]; PaR5, Table I1): 11 mm
- Diameter [4]: 6 mm
- diameter in mm [4]: 6 mm

Compound: CCC[C@@H]1C[C@@H](C(=O)N[C@@H]([C@H]2O[C@H](SC)[C@H](O)[C@@H](O)[C@H]2O)[C@@H](C)O)N(C)C1 [Lincomycin]
- Diameter [1]: 24 mm
- Results [1]: Susceptible
- CA-SFM Interpretation [2]: Susceptible
- Results ([2]; Table D1): Susceptible
- MIC mg/L ([2]; Table D2): ≦1 mg/L
- MIC [2, 15]: ≤ 1 mg/L
- Results ([3]; Table F1, MIC): Resistant
- CA-SFM Interpretation ([3]; from MIC): Resistant
- MIC [3, 16]: ≥ 16 mg/L
- MIC [3, 17]: ≥ 16 mg/L
- CA-SFM Interpretation [4]: Susceptible
- Diameter [4]: 23 mm
- Results [4]: Susceptible
- diameter in mm [4]: 23 mm

Compound: Teicoplanin
- Results [1]: Susceptible
- CA-SFM Interpretation [2]: Susceptible
- CLSI Interpretation ([2]; Cc CLSI 2011): Susceptible
- EUCAST Interpretation ([2]; Cc EUCAST 2011): Susceptible
- MIC mg/L ([2]; Table D1): ≦0.5 mg/L
- Results ([2]; Table D1): Susceptible
- MIC mg/L ([2]; Table D2): ≦0.5 mg/L
- MIC mg/L ([3]; Table F1): ≦4 mg/L
- Results ([3]; Table F1, MIC): Susceptible
- MIC ([3]; Table F2, MIC): ≦4 mg/L
- CA-SFM Interpretation ([3]; from MIC): Susceptible
- CLSI Interpretation ([3]; from MIC, Cc CLSI 2011): Susceptible
- EUCAST Interpretation ([3]; from MIC, Cc EUCAST 2011): Susceptible
- CA-SFM Interpretation [4]: Susceptible
- CLSI Interpretation ([4]; Cd CLSI 2011): Susceptible
- Results [4]: Susceptible
- diameter in mm [4]: 27 mm

Compound: CCN1CCN(C(=O)N[C@@H](C(=O)N[C@@H]2C(=O)N3[C@@H]2SC(C)(C)[C@@H]3C(=O)O)c2ccccc2)C(=O)C1=O [Piperacillin]
- MIC [7]: 128 mg/L
- MIC [8]: 32 mg/L
- MIC [9]: 256 mg/L
- MIC [10]: 2 mg/L
- CA-SFM Interpretation ([11]; Cc CA-SFM 2011): Resistant
- CLSI Interpretation ([11]; Cc CLSI 2011): Resistant
- EUCAST Interpretation ([11]; Cc EUCAST 2011): Resistant
- MIC ([11]; Pseudomonas aeruginosa, Table H2, read-out: MIC): ≥ 128 mg/L
- MIC ([11]; Table H1): ≧128
- Results ([11]; Table H1): Resistant
- CA-SFM Interpretation ([12]; Cd CA-SFM 2011): Resistant
- CLSI Interpretation ([12]; Cd CLSI 2011): Resistant
- EUCAST Interpretation ([12]; Cd EUCAST 2011): Resistant
- Diameter ([12]; Table C1): 13 mm
- Results ([12]; Table C1, against Dmin Dmax): Intermediate
- diameter in mm ([12]; Table C2): 13 mm
- CA-SFM Interpretation ([5]; EcR1, MIC against Cc CA-SFM 2011): Susceptible
- CLSI Interpretation ([5]; EcR1, MIC against Cc CLSI 2011): Susceptible
- EUCAST Interpretation ([5]; EcR1, MIC against Cc EUCAST 2011): Susceptible
- Results ([5]; EcR1, interpretation of the MIC, Table A1): Susceptible
- MIC [5, 18]: ≤ 8 mg/L
- MIC [5, 19]: ≤ 8 mg/L
- Diameter ([13]; EcR1, disk diffusion): 17 mm
- Results ([13]; EcR1, interpretation of the diameter against Dmin Dmax): Intermediate
- Diameter ([6]; PaR5, Table I1): 33 mm
- Results ([6]; PaR5, Table I1, against Dmin-Dmax): Susceptible
- diameter in mm ([6]; disk diffusion inhibition diameter, strain PaR5): 33 mm
- CA-SFM Interpretation ([6]; disk diffusion, PaR5, versus critical diameter CA-SFM 2011): Susceptible
- CLSI Interpretation ([6]; disk diffusion, PaR5, versus critical diameter CLSI 2011): Susceptible
- EUCAST Interpretation ([6]; disk diffusion, PaR5, versus critical diameter EUCAST 2011, for ** antibiotics the disk load differs and the EUCAST interpretation is not applicable): Susceptible
- CA-SFM Interpretation ([14]; Cd CA-SFM 2011): Susceptible
- CLSI Interpretation ([14]; Cd CLSI 2011): Susceptible
- EUCAST Interpretation ([14]; Cd EUCAST 2011): Susceptible
- Diameter ([14]; Table G1): 22 mm
- Results ([14]; Table G1, against Dmin-Dmax): Susceptible
- diameter in mm ([14]; Table G2): 22 mm
